Results on 3 compounds are retold here after patent US20240310364A1, “TUNABLE DYNAMIC AND NON-DYNAMIC HYDROGEL SYSTEMS” (The Johns Hopkins University, priority 2021, published 2024).

Assay [1] has as its system ECFCs. The experiment in a line: Inhibition studies (FI 14, GM6001, blebbistatin) in ECFC-loaded D-hydrogels. Set-up: ECFC aspect ratio (cell spreading) / integrin cluster size and area covered / integrin intensity and number / cellular protrusions and filopodia / sprouting: unit of the concentration uncertain. Type of assay: cell-based, human. The note with it: for vascular bed formation (tube length and volume): 3 days, blebbistatin 60 mM, FI 14 10 mM. How it is done: For 2D screening of the FI 14 (FI-14, R 95.0%; Sigma-Aldrich), the ECFCs were seeded into a 96-well plate at a cell density of 10000 cells/well in EGM-2 media (Lonza) with 10% FBS (Hyclone). After 1 day of culture, 100 μL of EGM-2 media containing increased concentrations of FI 14 ranging from 0 to 10 μM were added per well and culture for additional 24 hr following by staining for phospho-FAK (Tyr397;ThermoFisher Scientific) as described below. Biological triplicates were tested for each FI 14 concentrations. For inhibition studies, ECFCs were suspended in the hydrogel precursor as above with the addition of 10 mM of FI-14 (Sigma-Aldrich) or GM6001 (1 mg mL^−1; Sigma-Aldrich), 60 mM Blebbistain (Sigma-Aldrich) or vehicle control (DMSO; Sigma-Aldrich). The corresponding culture media also supplied with the corresponding inhibitor/vehicle control at the same concentration. Media was replenish every 24 h till analysis.

Another assay concerns mUPS spheroids. The assay is described as follows: Sarcoma spheroid encapsulation in hydrogels. Type of assay: cell-based, murine. The note with it: co-encapsulated in quick-relaxing hydrogels. How it is done:
Spheroids were formed using hanging droplet culture. Briefly, cell monolayers were grown until ˜75% confluent, rinsed with PBS, and passaged with 0.25% Trypsin-EDTA. Hanging droplets of 10,000 cells/20 μL droplet were formed on the inside of the cover of a 60 mm […]. 10 mL of PBS were placed in the bottom of the dish to act as a hydration chamber. Spheroids were cultured as hanging droplets for three days prior to encapsulation in hydrogels. 10 μl of media was added to each droplet on the second day of droplet culture.
For spheroid encapsulation, a similar protocol was followed with the adjustments for spheroids. We first collected 12 spheroids in a 1.5 mL Eppendorf tube, centrifuged for 3 minutes, and then pipetted off the media. All subsequent steps were identical to single-cell encapsulation. Cells in hydrogels were cultured under standard conditions and daily media changes of 200 μL.
Light microscopy images of encapsulated cells were recorded daily at 4×, 10×, and 20× magnifications starting at post-encapsulation (PE) Day 0. For spheroid area quantification, 10× images were grouped by individual spheroid and the area of the spheroid was manually traced in FIJI (NIH) for each day. Days 1-3 were normalized to the size of the spheroid on Day 0. […]

Assay [2] deals with ECFCs. The assay is described as follows: Inhibition studies (FI 14, GM6001, blebbistatin) in ECFC-loaded D-hydrogels. Type of assay: cell-based, human. Set-up: unit of the concentration uncertain. The note with it: 0.1 (unit uncertain), versus controls.
Setting [3] is: 60 (unit uncertain), 24 h, ECFCs in D-hydrogels.

For the compound `Nc1cc(N)c(N)cc1N` [FI 14], in the assay with ECFCs [1] (10 (unit uncertain), 24 h, versus control D-hydrogels), the “ECFC aspect ratio (cell spreading)” value was “cell spreading is reduced”. The sprouting entry in the assay with ECFCs [1] (10 (unit uncertain), ECFCs in D-hydrogels) is listed as “significant reduction”. The “phosphorylation of MLC” value in the assay on ECFCs [1] (24 h, ECFCs in D-hydrogels) is “reduces the phosphorylation of MLC”. The “integrin β1 and integrin aV mRNA expression” value in the assay on ECFCs [1] (24 h, versus D-hydrogel controls) is “downregulation”. For the same compound, the “MMP1 and MMP9 mRNA levels” value in the assay with ECFCs [1] (24 h, versus untreated controls) is listed as “significant reduction”. Moreover, the “MT1-MMP expression at protein and mRNA levels” value with ECFCs [1] (24 h in culture) is listed as “significantly lower expression”. The “vascular bed formation (tube length and volume)” value in the assay on ECFCs [1] (ECFCs in D-hydrogels) is “decrease in tube length and volume”.
Turning to `Cc1ccc2c(c1)C(=O)C1(O)CCN(c3ccccc3)C1=N2` (centres unmarked) [blebbistatin], in the assay on ECFCs [1] (setting [3]), the “cellular protrusions and filopodia” value was “decrease”; the “integrin cluster size and area covered” value is listed as “significant decrease”; the “integrin intensity and number” value was “did not affect”. Further, the “vascular bed formation (tube length and volume)” value in the assay on ECFCs [1] (ECFCs in D-hydrogels) is “shorter tube length and reduced vessel volume”. Besides, the “spheroid size under contractility inhibition” value in the assay on mUPS spheroids is given as “not sufficient to fully mirror spheroid shrinkage”.
As to `CNC(=O)[C@H](Cc1c[nH]c2ccccc12)NC(=O)[C@@H](CC(=O)NO)CC(C)C` [GM6001], the “stiffness of ECFC-loaded D-hydrogels” value in the assay with ECFCs [1] (day 3, versus without MMP inhibitor) was “significantly stiffer”. Moreover, the “tubulogenesis of ECFCs” value in the assay with ECFCs [2] is given as “inhibited”.
